From the Deep4Chem optical property database come the findings set out here.

The series can be described thus: solvent given as SMILES.
The mark [1] stands for this setting: in c1ccc2c(c1)c1ccccc1n2-c1ccc(-c2ccc(-n3c4ccccc4c4ccccc43)cc2)cc1.

Take `Cc1cc(C)c(C2=C3C=c4c(c5ccc(C(C)(C)C)cc5c5cc(C(C)(C)C)ccc45)=[N+]3[B-](F)(F)n3c2cc2c4ccc(C(C)(C)C)cc4c4cc(C(C)(C)C)ccc4c23)c(C)c1`: the emission maximum (in C1CCCCC1) worked out at 707 nm; the emission maximum (in C1CCOC1) turned out to be 711 nm; the emission maximum (in CC#N) was 711 nm; the emission maximum (in Cc1ccccc1) amounted to 715 nm; the emission maximum (in ClCCl) stood at 715 nm.

As for `CC(C)(C)c1ccc(-c2nc3c4ccccc4c4ccccc4c3n2-c2ccc(C(C)(C)C)cc2)cc1`, the emission maximum is 390 nm (in C1CCOC1); 389 nm (in C1COCCO1); 389 nm (in CC#N); 385 nm (in CCCCCC); 389 nm (in CCCCOCCCC); 388 nm (in CCN(CC)CC). This molecule also registered an emission maximum (in CCOC(C)=O) of 390 nm; an emission maximum (in CCOCC) of 388 nm; an emission maximum (in CN(C)C=O) of 391 nm; an emission maximum (in Cc1ccccc1) of 390 nm; an emission maximum (in ClC=C(Cl)Cl) of 392 nm; an emission maximum (in ClCCl) of 392 nm.

Molecule `O=c1c2cc(F)c(N3CCOCC3)cc2sc2cc(N3CCOCC3)c(F)cc12` yielded an emission maximum (in CCO) of 481 nm.

For the molecule `CCCCCCCCN1c2ccc(C#Cc3cc(C(F)(F)F)cc(C(F)(F)F)c3)cc2Sc2cc(C=O)ccc21`, the emission maximum runs as follows: (in C1CCOC1) 514 nm; (in CC#N) 532 nm; (in CCCCCC) 491 nm; (in CO) 517 nm; (in CS(C)=O) 540 nm; (in Cc1ccccc1) 508 nm. Also, the emission maximum (in ClC(Cl)Cl) came to 529 nm.

Where the note is “in CC#N”, `N#Cc1nn(-c2cccc(C(F)(F)F)c2)nc1N1CCCC1` gave an emission maximum of 430 nm.

For the molecule `CC1=C(C(C)(C)C)C(C)=[N+]2C1=C(C)c1c(C)c(C(C)(C)C)c(C)n1[B-]2(F)F`, the emission maximum (in C1CCCCC1) is listed as 571.2 nm; the emission maximum (in C1CCOC1) stood at 566.6 nm; the emission maximum (in C1COCCO1) was 565.4 nm; the emission maximum (in CC#N) was 560.6 nm; the emission maximum (in CC(C)=O) was 563.6 nm; the emission maximum (in CC(C)CC(C)(C)C) is 569 nm. Also, the emission maximum was 569 nm (in CCC(C)C); 562.6 nm (in CCCC(C)=O); 567.8 nm (in CCCCCC); 565 nm (in CCCCCCCCO); 565.4 nm (in CCCCCCO); 566.6 nm (in CCCCO). Moreover, the emission maximum by setting is: (in CCCCOC(C)=O) 564.6 nm; (in CCCO) 564.6 nm; (in CCO) 563.2 nm; (in CCOC(C)=O) 562.4 nm; (in CCOCC) 565.4 nm; (in CN(C)C=O) 565.4 nm. For the same molecule, the emission maximum reads like this: (in CNC=O) 560.6 nm; (in CO) 561.2 nm; (in COC(C)=O) 561.8 nm; (in OCC(F)(F)F) 561.2 nm.

Regarding `CCCCCCc1ccc2c(/C=N/c3ccc(/N=C/c4c(O)ccc5cc(CCCCCC)ccc45)cc3)c(O)ccc2c1`, the emission maximum reads like this: (in C1CCOC1) 542 nm; (in CC#N) 539 nm; (in Cc1ccccc1) 546 nm; (in ClCCl) 546 nm.

The molecule `O=C1c2ccc(-c3ccc(N(c4ccc(-c5ccccc5)cc4)c4ccc(-c5ccccc5)cc4)cc3)cc2C(=O)c2ccc(-c3ccc(N(c4ccc(-c5ccccc5)cc4)c4ccc(-c5ccccc5)cc4)cc3)cc21` came in with an emission maximum (in Cc1ccccc1) of 608 nm and an emission maximum under setting [1] of 601 nm.

On to `O=S(=O)(c1ccc(-c2ccc(-c3nc4c5ccccc5c5ccccc5c4n3-c3ccccc3)cc2)cc1)c1ccc(-c2ccc(-c3nc4c5ccccc5c5ccccc5c4n3-c3ccccc3)cc2)cc1`, for which the emission maximum is recorded as 451 nm (in C1CCOC1); 479 nm (in CC#N); 468 nm (in CC(C)=O); 437 nm (in CC(C)OC(C)C); 404 nm (in CCCCCC); 420 nm (in CCCCOCCCC). Further, the emission maximum (in CCN(CC)CC) was 413 nm; the emission maximum (in CCOC(C)=O) is listed as 448 nm; the emission maximum (in CCOCC) turned out to be 438 nm; the emission maximum (in CN(C)C=O) turned out to be 478 nm; the emission maximum (in ClC(Cl)Cl) stood at 450 nm; the emission maximum (in ClCCl) stood at 461 nm. Under setting [1], this molecule came in with an emission maximum of 443 nm.

For the molecule `CC(C)(C)NC(=O)c1cccc2ccc3c4ccccc4c4ccccc4c3c12`, the emission maximum (in ClCCl) was determined as 403 nm.

On to `O=c1c2cc(F)c(O)cc2sc2cc(O)c(F)cc12`, for which the emission maximum (in CCO) came out at 465 nm.

For the setting “in CO”, `N#Cc1ccc(-c2nc(-c3ccccc3)c(-c3ccccc3)[nH]2)cc1` gave an emission maximum of 435 nm.

On to `COc1ccc(-c2c3ccc([nH]3)c3nc(c(-c4ccc([N+](=O)[O-])cc4)c4ccc([nH]4)c4ccc([nH]4)c(-c4ccc(OC)cc4)c4ccc2o4)C=C3)cc1`, for which the emission maximum is listed as 761 nm (in C1CCOC1), 739 nm (in Cc1ccccc1) and 739 nm (in c1ccccc1).

Regarding `COc1ccc(C2=c3sc(-c4ccc(OC)cc4)c(-c4ccc(OC)cc4)c3=[N+]3C2=Nc2c(-c4ccc(OC)cc4)c4sc(-c5ccc(OC)cc5)c(-c5ccc(OC)cc5)c4n2[B-]3(F)F)cc1`, the emission maximum (in ClC(Cl)Cl) is 816 nm.

`CCC1=[N+]2c3c(c4ccc(Oc5c(C)cc(C)cc5C)c5cc6c(Oc7c(C)cc(C)cc7C)ccc7c8cc(CC)n(c8c3c(c54)c67)[B-]2(F)F)=C1` yielded an emission maximum (in Cc1ccccc1) of 924 nm.

`c1cc2ccc3ccc4cc3c2cc1c1ccc2ccc3ccc(cc3c2c1)c1ccc2ccc3ccc4cc3c2c1` showed an emission maximum (in Cc1ccccc1) of 419 nm.

In turn, `F[B-]1(F)Oc2ccccc2-c2nc(-c3ccccc3)c3cc(Cl)ccc3[n+]21` had an emission maximum (in Cc1ccccc1) of 542 nm.

For `CC(C)(C)c1ccc2oc(-c3ccc(-c4nc5cc(C(C)(C)C)ccc5o4)s3)nc2c1`, the emission maximum runs as follows: (in C1CCCCC1) 426 nm; (in C1CCOC1) 432 nm; (in CC1CCCCC1) 426 nm; (in CC#N) 432 nm; (in CCCCO) 434 nm; (in CCO) 434 nm. Further, the emission maximum runs as follows: (in CN(C)C=O) 434 nm; (in Cc1ccccc1) 434 nm; (in Clc1ccccc1Cl) 437 nm; (in c1ccccc1) 434 nm.

As for `COC(=O)c1[nH]c(-c2ccccc2)c2nnc3ccc(OC)cc3c12`, the emission maximum (in ClCCl) was 475 nm.

On to `COc1cc(OC)cc(C2=C3C(C)=C(I)C(/C=C/c4ccsc4)=[N+]3[B-](F)(F)n3c(/C=C/c4ccsc4)c(I)c(C)c32)c1`, for which the emission maximum reads like this: (in C1CCOC1) 680 nm; (in CS(C)=O) 692 nm; (in ClCCl) 682 nm.

Regarding `CCOC(=O)CCOc1ccc(C(c2c(C)[nH]c3ccccc23)c2c(C)[nH]c3ccccc23)cc1OC`, the emission maximum is, setting by setting: (in C1CCCCC1) 330 nm; (in CC#N) 344 nm; (in CO) 350 nm; (in O) 351 nm.

On to `CCOC(=O)CSc1nc(-c2ccccc2)c(C)c(C#N)c1C#N`, for which the emission maximum by setting is: (in C1COCCO1) 414 nm; (in CC#N) 426 nm; (in CCO) 434 nm; (in CCOC(C)=O) 421 nm; (in ClC(Cl)Cl) 435 nm; (in c1ccccc1) 421 nm.

Take `Cc1ccc2c(CC(=O)NN)coc2c1`: the emission maximum by setting is: (in C1CCOC1) 400 nm; (in CC#N) 397 nm; (in CC(C)=O) 402 nm; (in CCCCO) 398 nm; (in CCCO) 394 nm; (in CCO) 397 nm. Besides, the emission maximum (in CCOC(C)=O) was 390 nm, the emission maximum (in CN(C)C=O) is listed as 412 nm, the emission maximum (in CO) was 391 nm and the emission maximum (in ClCCl) was found to be 399 nm.

In turn, `c1ccc(B2Nc3cc4c(cc3-c3sc5ccccc5c32)NB(c2ccccc2)c2c-4sc3ccccc23)cc1` registered an emission maximum (in ClCCl) of 418 nm.

For `CN1/C(=C/C=C(/C=C/C2=[N+](C)c3ccccc3C2(C)C)c2cc(F)cc(F)c2)C(C)(C)c2ccccc21`, the emission maximum (in CCO) is given as 661 nm, the emission maximum (in CO) was 655 nm, the emission maximum (in CS(C)=O) came out at 663 nm and the emission maximum (in O) came out at 659 nm.

For `CN(C)CCNc1ccc([N+](=O)[O-])cc1[N+](=O)[O-]`, the emission maximum is, setting by setting: (in C1CCCCC1) 368 nm; (in C1CCOC1) 389 nm; (in C1COCCO1) 385 nm; (in CC#N) 399 nm; (in CC(C)=O) 401 nm; (in CCCCCC) 363 nm. The same molecule registered an emission maximum (in CCO) of 394 nm; an emission maximum (in CCOC(C)=O) of 384 nm; an emission maximum (in CN(C)C=O) of 406 nm; an emission maximum (in CO) of 389 nm; an emission maximum (in CS(C)=O) of 417 nm; an emission maximum (in Cc1ccccc1) of 385 nm. Further, the emission maximum runs as follows: (in ClC(Cl)Cl) 389 nm; (in ClCCl) 393 nm.

In turn, `CNc1cc2nc3cc(Cl)c(Cl)cc3nc2cc1NC` registered an emission maximum (in CCO) of 541 nm.

On to `CC(C)(C)NC(=O)c1ccc(-c2cc3ccccc3o2)c2ccc3c4ccccc4c4ccccc4c3c12`, for which the emission maximum (in ClCCl) is listed as 441 nm.

In the case of `CCn1c2ccccc2c2c3nsnc3c3c4ccccc4n(CC)c3c21`, the emission maximum was determined as 500 nm (in CN(C)C=O), 470 nm (in Cc1ccccc1) and 497 nm (in ClCCl).

Under “in O”, `Cc1ccc(C2=C3C=CC(=[N+](C)C)C=C3[Si](C)(C)c3cc(N(C)C)ccc32)c(C)c1` came in with an emission maximum of 660 nm.

Under “in Cc1ccccc1”, `Cc1ccc(N2C(c3ccccc3[NH-])=[NH+]C(c3ccccc3)C2c2ccccc2)cc1` (configuration not stated) displayed an emission maximum of 572 nm.
